Holding throughout (type): in vivo, human
For assay [1], the system named is subject's mood. Description: Implicit response test (IRT). Further details: scale not given here. The protocol: (§1) 1. Sensorial and Emotional Evaluation of Fragrance Raw Materials Each fragrance was evaluated by 30 subjects. At each appointment, the subject discovered fragrances in one sequence of four fragrances and two sequences of three fragrances separated by a 10-minute break.
(§2) During those appointments, the subjects smelt the fragrances in a random way.
(§3) For each fragrance, the subject discovered each fragrance on a card strip for 10 seconds. Between each product, a rest-period of 2 minutes was carried out during which the subject smelt their own body odour by smelling their wrist and the subject drank a little bit of water as well.
(§4) The evaluation is carried out in standardized lighting conditions and under a monitored temperature (temperature 21±1.5° C.).
Implicit response tests (IRTs) are a family of tests and assess the subjects' immediate, “gut instinct” responses the fragrance raw materials.
The alleged underlying processes are based on how neurosciences describe the way our brain processes information. Indeed, our brain processes information through two systems: System 2, which is slow and processes conscious information, and System 1, which is fast and processes non-conscious information.
The IRT tests are performed at a computer, where the following words appear on the computer screen: • Energizing • Relaxing • Attractive • Sensual • Joyful • Protective • Confident • Fresh • Well-being
The subject has to click on the screen with the computer mouse to indicate their accordance or not of the word with the tested fragrance. In addition, the times to click the button are recorded.

In assay [2] the test system is subject's mood. The assay is described as follows: Actimood scoring (correlation of EmoChar and IRT values). The protocol:
as §1, §3
Emochar™ is a system of emotional characterization, scoring 7 main emotional dimensions from 0 to 10: • Stimulation: focus, attention, and awakening. • Relaxation: serenity, relaxation and appeasing. • Sensual: arousing, sexy and erotic. • Pleasure: liking, “gourmand” and satisfaction. • Tenderness: gentleness and softness. • Joy: excitement, fun and enthusiasm. • Self-esteem: confidence and assurance
Actimood scores are based on a correlation of EmoChar™ and IRT values. The scores are classified on a scale from 0 (low impact on subject's mood) to 3 (high impact on subject's mood).
Each score is obtained according to an algorithm, mixing verbal and non-verbal responses of volunteers to a specific product, or stimulus in a given context. The algorithm was developed from extensive field data, and in accordance with scientific literature and validated biobehavioral patterns associated to various emotional states.

In assay [3] the test system is subject's mood. Description: Sensorial and emotional evaluation of fragrance raw materials and fragrance compositions (prosody, verbatim, GEW, IRT, EmoChar combined to one mood). The settings on record: 30 subjects, card strip for 10 seconds; details in FIG. 1-9. As to the method: as §1, §2, §3, §4
The different recordings are carried in technical room during talking with the technicians. he following tests were performed for more than 100 different fragrance raw materials.
The following testing procedures were used to determine one mood out of five different testing strategies. All results of the single testing protocols as described in 1.1 to 1.5 were combined and one mood per fragrance raw material or fragrance composition was determined based on the single testing results.
Fragrance compositions were designed by combining the tested fragrance raw materials and the compositions were tested in 30 different subjects to evaluate the emotional impression conveyed by the fragrance composition as described above for the fragrance raw materials.

The mark [4] stands for this setting: ingredients of the fragrance composition conveying an attractive mood (Table 2).
Where [5] appears, read: attractive mood (Table 11), scale 0 (low impact) to 3 (high impact).
[6] abbreviates: protective mood (Table 5), scale 0 (low impact) to 3 (high impact).
[7] abbreviates: joyful mood (Table 6), scale 0 (low impact) to 3 (high impact).
Where [8] appears, read: self-confident mood (Table 9), scale 0 (low impact) to 3 (high impact).
[9] abbreviates: well-being mood (Table 10), scale 0 (low impact) to 3 (high impact).
The mark [10] stands for this setting: relaxing mood (Composition 2, Table 4), scale 0 (low impact) to 3 (high impact).
[11] abbreviates: sensual mood (Table 8), scale 0 (low impact) to 3 (high impact).
[12] abbreviates: ingredients of the fragrance composition conveying a fresh mood (Table 1).
Setting [13] is: fresh mood (Table 12), scale 0 (low impact) to 3 (high impact).

In the case of `CCOc1cc(C=O)ccc1O` [ETHYL VANILLIN, 3-ethoxy-4-hydroxy-benzaldehyde], the “IRT Score” value in the assay with subject's mood [1] (setting [4]) was 2786. For the same compound, the Actimood score stood at 3 with subject's mood [2] (setting [5]) and 1 in the assay with subject's mood [2] (setting [6]). Moreover, the “mood conveyed by the fragrance raw material” value (“mood conveyed” below) in the assay on subject's mood [3] is given as “conveying a well-being mood”.
Turning to `CCc1occc(=O)c1O` [ETHYL MALTOL, 2-ethyl-3-hydroxy-pyran-4-one], the “IRT Score” value with subject's mood [1] (setting [4]) came to 3505. For the same compound, the Actimood score in the assay with subject's mood [2] (setting [5]) and with subject's mood [2] (setting [7]) was 3 throughout. The “mood conveyed” value with subject's mood [3] is on record as “conveying an attractive mood”.
As to `CC1C(C)(C)C2=C(C(=O)CCC2)C1(C)C` (stereo not shown) [CASHMERAN, 1,1,2,3,3,-pentamethyl-2,5,6,7-tetrahydroinden-4-one], the “IRT Score” value in the assay with subject's mood [1] (setting [4]) was determined as 1469. For the same compound, the Actimood score in the assay with subject's mood [2] (setting [5]) came to 3; in the assay on subject's mood [2] (setting [6]), 2; in the assay on subject's mood [2] (setting [8]) it was 2; with subject's mood [2] (setting [9]) it was 1. For the same compound, in the assay on subject's mood [3], the “mood conveyed” value is “conveying a protective mood”.
For the compound `O=C1CCCCCCCCCCCCCCO1` [MACROLIDE ® SUPRA, Pentadecan-15-olide], the “IRT Score” value in the assay with subject's mood [1] (setting [4]) stood at 1944. For the same compound, the Actimood score turned out to be 3 in the assay with subject's mood [2] (setting [5]), 2 in the assay with subject's mood [2] (setting [6]), 3 with subject's mood [2] (setting [10]) and 2 with subject's mood [2] (setting [9]).
As to `O=C1CCCCCCCCCCCC(=O)OCCO1` [ETHYLENE BRASSYLATE, 1,4-dioxacycloheptadecane-5,17-dione], in the assay on subject's mood [1] (setting [4]), the “IRT Score” value is 1177. The Actimood score in the assay on subject's mood [2] (setting [5]) is given as 3; in the assay with subject's mood [2] (relaxing and sleep enhancing mood (Composition 1, Table 3), scale 0 (low impact on subject's mood) to 3 (high impact)) it was 2; in the assay with subject's mood [2] (setting [8]) it was 2; in the assay with subject's mood [2] (setting [11]) it was 3.
As to `COC1(C)CCC23CC1C(C)(C)C2CCC3C` (stereo not shown) [CEDRAMBER, 8-methoxy-2,6,6,8-tetramethyl-tricyclo[5.3.1.01,5]undecane], the Actimood score in the assay on subject's mood [2] (setting [11]) is recorded as 3; in the assay on subject's mood [2] (setting [9]) it was 0. In the assay with subject's mood [3], the “mood conveyed” value is reported as “conveying a sensual mood”.
On to Oxacyclohexadecen-2-one [GLOBALIDE ®], for which, in the assay on subject's mood [1] (setting [4]), the “IRT Score” value is on record as 1815. Besides, the figures for the Actimood score in the assay on subject's mood [2] (setting [5]), with subject's mood [2] (setting [6]) and with subject's mood [2] (setting [9]) were 3, 2 and 2, respectively. Also, in the assay with subject's mood [3], the “mood conveyed” value is given as “conveying a relaxing mood”.
Turning to `CC(C=O)Cc1ccc(C(C)C)cc1` (stereo not shown) [CYCLAMEN ALDEHYDE, 3-(4-isopropylphenyl)-2-methyl-propanal], the “IRT Score” value with subject's mood [1] (setting [12]) was 1005. Besides, in the assay on subject's mood [2] (setting [13]), the Actimood score turned out to be 3.
Turning to `CC(CC=O)CCCC(C)(C)O` (stereo not shown) [HYDROXY CITRONELLAL, 7-hydroxy-3,7-dimethyl-octanal], the “IRT Score” value with subject's mood [1] (setting [4]) worked out at 1283. For the same compound, the Actimood score in the assay with subject's mood [2] (setting [5]) was determined as 3; in the assay on subject's mood [2] (setting [8]), 1.
`C=CCOC(=O)CCC1CCCCC1` [ALLYL CYCLOHEXYL PROPIONATE, allyl 3-cyclohexylpropanoate] gave an Actimood score with subject's mood [2] (setting [7]) of 3. Moreover, in the assay on subject's mood [3], the “mood conveyed” value is recorded as “conveying a joyful mood”.
Regarding `Cc1ccc2c(c1)OCC(=O)CO2` [CALONE, 7-methyl-1,5-benzodioxepin-3-one], in the assay with subject's mood [1] (setting [12]), the “IRT Score” value stood at 2830. Moreover, the Actimood score with subject's mood [2] (energizing mood (Table 7), scale 0 (low impact) to 3 (high impact)) was found to be 3; in the assay with subject's mood [2] (setting [13]) it was 3; in the assay with subject's mood [2] (setting [7]) it was 3; in the assay on subject's mood [2] (setting [9]), 3.
For the compound `O=c1ccc2ccccc2o1` [COUMARIN, chromen-2-one], in the assay on subject's mood [1] (setting [4]), the “IRT Score” value is given as 1347. Moreover, the Actimood score in the assay with subject's mood [2] (setting [5]) and in the assay on subject's mood [2] (setting [10]) was 3 in each case.
Turning to `CC1(C)CCCC2(C)C1CCC1(C)OCCC12` (stereo not shown) [AMBROXIDE, 3a,6,6,9a-Tetramethyldodecahydronaphtho[2,1-b]furan], the “IRT Score” value in the assay with subject's mood [1] (setting [12]) worked out at 1643; in the assay on subject's mood [1] (setting [4]), 1921. The Actimood score in the assay with subject's mood [2] (setting [5]) is 3; in the assay with subject's mood [2] (setting [13]), 3; in the assay with subject's mood [2] (setting [7]), 3; with subject's mood [2] (setting [11]), 2; with subject's mood [2] (setting [9]) it was 3. The “mood conveyed” value with subject's mood [3] is “conveying a self-confident mood”.

The record behind these values is patent US20250302728A1, “FRAGRANCE COMPOSITIONS AND PRODUCTS CONVEYING A POSITIVE MOOD” (SYMRISE AG, priority 2022, published 2025).
